Measured values from patent US9718812B2, “Substituted thiazole or oxazole P2X7 receptor antagonists” (Axxam S.P.A., priority 2014, dated 2017).

Key:
P2X7 receptor = P2X7 receptor (Homo sapiens (Human), UniProt Q99572); test: YO-PRO-1 Uptake Assay (large pore form, Bz-ATP stimulated); assay type: cell-based; conditions: HEK-293 cells stably transfected with P2X7 receptor; Bz-ATP EC80 (30 μM); 5 μM YO-PRO-1
Text: YO-PRO®-1 is a fluorescent DNA-binding dye with a MW of 374 Da (Molecular Probes®, cat. Y3603). This method is based upon the presumed ability of YO-PRO®-1 to enter through the dilated or “large pore form” of P2X7 receptor and to bind to intracellular DNA whereupon it increases many fold its fluorescence intensity. The dye has an absorption spectrum compatible with excitation at 488 nm by argon laser sources and its emission wavelength is in the range of 515-575 nm. The aim of this assay was to validate the interaction of antagonists with P2X7 receptor using an alternative readout to Ca^2+-sensitive fluorescent dyes.
HEK-293 cells stably transfected with P2X7 receptor were seeded overnight in growth medium at 20,000 cells/well in 384-well plate. 24 hours later, the medium was removed, the cells were washed with Low Divalent Cation Assay Buffer (0.3 mM Ca2+ and 0 mM Mg2+) and then pre-loaded with 20 μL/w of 5 μM YO-PRO®-1 dye. […] fluorescence measurement immediately started. Then, 10 μL/w of test compounds and reference antagonist A438079 at 3×-concentration were injected with the […] and the kinetic response over a period of five minutes was monitored. A second injection of 10 μL/w of 3× Bz-ATP EC80 (30 μM) was performed with the […] and the signal of the emitted fluorescence was recorded for additional 60 minutes. All the experiment was carried out with a Low Divalent Cation Assay Buffer (0.3 mM Ca^2+ and 0 mM Mg^2+).
The effect of the test compounds was measured as percent inhibition vs the reference antagonist and IC50 values were calculated accordingly.

P2X7 receptor (hP2X7) = P2X7 receptor (hP2X7) (Homo sapiens (Human), UniProt Q99572); test: Screen Quest Fluo-8 No Wash Calcium Assay (Bz-ATP-induced Ca2+ influx, FLIPR TETRA); assay type: cell-based; conditions: HEK-293 cells stably transfected with P2X7 receptor, Fluo-8 calcium, Low Divalent Cation Assay Buffer
P2X7 receptor (hP2X7), sequence (Q99572 whole entry): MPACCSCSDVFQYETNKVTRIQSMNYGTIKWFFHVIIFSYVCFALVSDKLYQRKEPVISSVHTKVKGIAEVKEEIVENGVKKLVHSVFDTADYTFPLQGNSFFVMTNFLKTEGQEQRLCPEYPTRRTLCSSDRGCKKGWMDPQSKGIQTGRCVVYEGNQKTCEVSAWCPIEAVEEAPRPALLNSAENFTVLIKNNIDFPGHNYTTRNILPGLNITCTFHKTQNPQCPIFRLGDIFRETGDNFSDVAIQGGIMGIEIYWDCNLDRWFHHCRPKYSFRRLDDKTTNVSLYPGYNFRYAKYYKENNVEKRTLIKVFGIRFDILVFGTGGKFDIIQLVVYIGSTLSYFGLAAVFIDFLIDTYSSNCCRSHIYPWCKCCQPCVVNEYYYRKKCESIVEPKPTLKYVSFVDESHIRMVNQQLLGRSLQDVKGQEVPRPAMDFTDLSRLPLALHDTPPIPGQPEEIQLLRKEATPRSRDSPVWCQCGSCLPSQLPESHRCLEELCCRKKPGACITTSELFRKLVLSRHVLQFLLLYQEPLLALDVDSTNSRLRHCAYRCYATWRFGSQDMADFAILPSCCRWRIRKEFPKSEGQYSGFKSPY
Experimental: Extracellular binding of Bz-ATP to P2X7 receptor opens the channel and allows Ca2+ influx into the cells. This Ca2+ entry was measured in HEK-293 cells stably transfected with P2X7 receptor using Screen Quest™ Fluo-8 No Wash Calcium Assay Kit (AAt Bioquest®, cat. 36316). Once inside the cell, the lipophilic blocking groups of Fluo-8 are cleaved by non-specific cell esterases, resulting in a negatively-charged fluorescent dye that stays inside cells. Its fluorescence increases upon binding to calcium. When HEK-293/P2X7 cells are stimulated with Bz-ATP, Ca2+ enters the cells and the fluorescence of Fluo-8 NW increases. The dye has an absorption spectrum compatible with excitation at 488 nm by argon laser sources and its emission wavelength is in the range of 515-575 nm.
HEK-293 cells stably transfected with P2X7 receptor were seeded overnight in growth medium at 10,000 to 20,000 cells/well in 384-well plate. 24 hours later, the medium was removed and the cells were pre-loaded at RT for 1 hour with 20 μL/w of Fluo-8 NW. Then 10 μL/w of test compounds and reference antagonist A438079 at 3×-concentration were injected with the […] and the kinetic response over a period of five minutes was monitored.

P2X7 receptor, sequence (Q99572 whole entry): as above

SMILES: Cc1ncsc1C(CNC(=O)c1cccc2ncccc12)N1CCC(F)(F)CC1 (centres unmarked) [Compound 33, N-[2-(4,4-difluoropiperidin-1-yl)-2-(4-methyl-1,3-thiazol-5-yl)ethyl]quinoline-5-carboxamide]
- IC50 (P2X7 receptor): 176 nM
- IC50 (P2X7 receptor (hP2X7)): 158 nM

SMILES: Cc1cccc(C)c1C(=O)NCC(c1scnc1C)N1CCOCC1 (centres unmarked) [Compound 36, 2,6-dimethyl-N-[2-(4-methyl-1,3-thiazol-5-yl)-2-(morpholin-4-yl)ethyl]benzamide]
- IC50 (P2X7 receptor): 302 nM
- IC50 (P2X7 receptor (hP2X7)): 149 nM

SMILES: Cc1ncsc1C(CNC(=O)c1cc(-c2ncc(F)cn2)ccc1Cl)N1CCOCC1 (centres unmarked) [Compound 37, 2-chloro-5-(5-fluoropyrimidin-2-yl)-N-[2-(4-methyl-1,3-thiazol-5-yl)-2-(morpholin-4-yl)ethyl]benzamide]
- IC50 (P2X7 receptor): 90 nM
- IC50 (P2X7 receptor (hP2X7)): 106 nM

SMILES: Cc1ncc(C(CNC(=O)c2c(F)cccc2Cl)N2CCC(F)(F)CC2)s1 (centres unmarked) [Compound 38, 2-chloro-N-[2-(4,4-difluoropiperidin-1-yl)-2-(2-methyl-1,3-thiazol-5-yl)ethyl]-6-fluorobenzamide]
- IC50 (P2X7 receptor): 49 nM
- IC50 (P2X7 receptor (hP2X7)): 87 nM

SMILES: Cc1ncc(C(CNC(=O)c2c(C)cccc2C)N2CCC(F)(F)CC2)s1 (centres unmarked) [Compound 40, N-[2-(4,4-difluoropiperidin-1-yl)-2-(2-methyl-1,3-thiazol-5-yl)ethyl]-2,6-dimethylbenzamide]
- IC50 (P2X7 receptor): 18 nM
- IC50 (P2X7 receptor (hP2X7)): 30 nM

SMILES: Cc1ncc(C(CNC(=O)c2c(C)cccc2Cl)N2CCc3ccccc3C2)s1 (centres unmarked) [Compound 41, 2-chloro-6-methyl-N-[2-(2-methyl-1,3-thiazol-5-yl)-2-(1,2,3,4-tetrahydroisoquinolin-2-yl)ethyl]benzamide]
- IC50 (P2X7 receptor): 996 nM
- IC50 (P2X7 receptor (hP2X7)): 853 nM

SMILES: O=C(NCC(c1cnco1)N1CCOCC1)c1c(F)cccc1Cl (centres unmarked) [Compound 44, 2-chloro-6-fluoro-N-[2-(morpholin-4-yl)-2-(1,3-oxazol-5-yl)ethyl]benzamide]
- IC50 (P2X7 receptor): 500 nM
- IC50 (P2X7 receptor (hP2X7)): 677 nM

SMILES: Cc1cccc(C)c1C(=O)NCC(c1cnco1)N1CCC(F)(F)CC1 (centres unmarked) [Compound 46, N-[2-(4,4-difluoropiperidin-1-yl)-2-(1,3-oxazol-5-yl)ethyl]-2,6-dimethylbenzamide]
- IC50 (P2X7 receptor): 55 nM
- IC50 (P2X7 receptor (hP2X7)): 18 nM

SMILES: O=C(NCC(c1cnco1)N1CCc2ccccc2C1)c1c(F)cccc1Cl (centres unmarked) [Compound 48, 2-chloro-6-fluoro-N-[2-(1,3-oxazol-5-yl)-2-(1,2,3,4-tetrahydroisoquinolin-2-yl)ethyl]benzamide]
- IC50 (P2X7 receptor): 1070 nM
- IC50 (P2X7 receptor (hP2X7)): 541 nM

SMILES: Cc1cccc(C)c1C(=O)NCC(c1cnco1)N1CCc2ccccc2C1 (centres unmarked) [Compound 49, 2,6-dimethyl-N-[2-(1,3-oxazol-5-yl)-2-(1,2,3,4-tetrahydroisoquinolin-2-yl)ethyl]benzamide]
- IC50 (P2X7 receptor): 945 nM
- IC50 (P2X7 receptor (hP2X7)): 104 nM

SMILES: COc1cccc(C(=O)NCC(c2ocnc2C)N2CCC(F)(F)CC2)c1OC (centres unmarked) [Compound 50, N-[2-(4,4-difluoropiperidin-1-yl)-2-(4-methyl-1,3-oxazol-5-yl)ethyl]-2,3-dimethoxybenzamide]
- IC50 (P2X7 receptor): 2090 nM
- IC50 (P2X7 receptor (hP2X7)): 4970 nM

SMILES: Cc1ncoc1C(CNC(=O)c1cc(-c2ncc(F)cn2)ccc1Cl)N1CCC(F)(F)CC1 (centres unmarked) [Compound 51, 2-chloro-N-[2-(4,4-difluoropiperidin-1-yl)-2-(4-methyl-1,3-oxazol-5-yl)ethyl]-5-(5-fluoropyrimidin-2-yl)benzamide]
- IC50 (P2X7 receptor): 71 nM
- IC50 (P2X7 receptor (hP2X7)): 101 nM

SMILES: Cc1ncoc1C(CNC(=O)c1cc(-c2ncc(F)cn2)ccc1Cl)N1CCOCC1 (centres unmarked) [Compound 54, 2-chloro-5-(5-fluoropyrimidin-2-yl)-N-[2-(4-methyl-1,3-oxazol-5-yl)-2-(morpholin-4-yl)ethyl]benzamide]
- IC50 (P2X7 receptor): 279 nM
- IC50 (P2X7 receptor (hP2X7)): 114 nM

SMILES: COc1cccc(C(=O)NCC(c2ocnc2C)N2CCc3ccccc3C2)c1OC (centres unmarked) [Compound 56, 2,3-dimethoxy-N-[2-(4-methyl-1,3-oxazol-5-yl)-2-(1,2,3,4-tetrahydroisoquinolin-2-yl)ethyl]benzamide]
- IC50 (P2X7 receptor): 414 nM
- IC50 (P2X7 receptor (hP2X7)): 147 nM

SMILES: Cc1nc(C)c(C(CNC(=O)c2cc(-c3ncc(F)cn3)ccc2Cl)N2CCC(F)(F)CC2)o1 (centres unmarked) [Compound 58, 2-chloro-N-[2-(4,4-difluoropiperidin-1-yl)-2-(2,4-dimethyl-1,3-oxazol-5-yl)ethyl]-5-(5-fluoropyrimidin-2-yl)benzamide]
- IC50 (P2X7 receptor): 2970 nM
- IC50 (P2X7 receptor (hP2X7)): 1120 nM

SMILES: Cc1ncc(C(CNC(=O)c2c(F)cccc2Cl)N2CCC(OCc3ccccc3)CC2)s1 (centres unmarked) [Compound 62, N-{2-[4-(benzyloxy)piperidin-1-yl]-2-(2-methyl-1,3-thiazol-5-yl)ethyl}-2-chloro-6-fluorobenzamide]
- IC50 (P2X7 receptor): 1110 nM
- IC50 (P2X7 receptor (hP2X7)): 576 nM

SMILES: O=C(NCC(c1cnco1)N1CCC(OCc2ccccc2)CC1)c1c(F)cccc1Cl (centres unmarked) [Compound 63, N-{2-[4-(benzyloxy)piperidin-1-yl]-2-(1,3-oxazol-5-yl)ethyl}-2-chloro-6-fluorobenzamide]
- IC50 (P2X7 receptor): 158 nM
- IC50 (P2X7 receptor (hP2X7)): 69 nM

SMILES: O=C(NCC(c1cnc(C(F)(F)F)s1)N1CCC(F)(F)CC1)c1c(F)cccc1Cl (centres unmarked) [Compound 81, 2-chloro-N-[2-(4,4-difluoropiperidin-1-yl)-2-[2-(trifluoromethyl)-1,3-thiazol-5-yl]ethyl]-6-fluorobenzamide]
- IC50 (P2X7 receptor): 16 nM
- IC50 (P2X7 receptor (hP2X7)): 38 nM

SMILES: CCc1ncc(C(CNC(=O)c2c(F)cccc2Cl)N2CCC(F)(F)CC2)s1 (centres unmarked) [Compound 85, 2-chloro-N-[2-(4,4-difluoropiperidin-1-yl)-2-(2-ethyl-1,3-thiazol-5-yl)ethyl]-6-fluorobenzamide]
- IC50 (P2X7 receptor): 48 nM
- IC50 (P2X7 receptor (hP2X7)): 62 nM

SMILES: O=C(NCC(c1cnc(C2CC2)s1)N1CCC(F)(F)CC1)c1cc(-c2ncc(F)cn2)ccc1Cl (centres unmarked) [Compound 87]
- IC50 (P2X7 receptor): 126 nM
- IC50 (P2X7 receptor (hP2X7)): 179 nM

SMILES: Cc1ncsc1C(CNC(=O)c1c(F)cccc1Cl)N1CCOC(c2ccc(F)cc2F)C1 (centres unmarked) [Compound 91, 2-chloro-N-{2-[2-(2,4-difluorophenyl)morpholin-4-yl]-2-(4-methyl-1,3-thiazol-5-yl)ethyl}-6-fluorobenzamide]
- IC50 (P2X7 receptor): 53 nM
- IC50 (P2X7 receptor (hP2X7)): 72 nM

SMILES: Cc1ncsc1C(CNC(=O)c1cc(-c2ncc(F)cn2)ccc1Cl)N1CCOC2(CCC2)C1 (centres unmarked) [Compound 93, 2-chloro-5-(5-fluoropyrimidin-2-yl)-N-[2-(4-methyl-1,3-thiazol-5-yl)-2-{5-oxa-8-azaspiro[3.5]nonan-8-yl}ethyl]benzamide]
- IC50 (P2X7 receptor): 82 nM
- IC50 (P2X7 receptor (hP2X7)): 116 nM

SMILES: O=C(NCC(c1scnc1C(F)F)N1CCC(F)(F)CC1)c1c(F)cccc1Cl (centres unmarked) [Compound 95, 2-chloro-N-{2-[4-(difluoromethyl)-1,3-thiazol-5-yl]-2-(4,4-difluoropiperidin-1-yl)ethyl}-6-fluorobenzamide]
- IC50 (P2X7 receptor): 82 nM
- IC50 (P2X7 receptor (hP2X7)): 54 nM

SMILES: Cc1ncsc1C(CNC(=O)c1cccc2ncccc12)N1CCOC(c2ccc(F)cc2F)C1 (centres unmarked) [Compound 99, N-{2-[2-(2,4-difluorophenyl)morpholin-4-yl]-2-(4-methyl-1,3-thiazol-5-yl)ethyl}quinoline-5-carboxamide]
- IC50 (P2X7 receptor): 79 nM
- IC50 (P2X7 receptor (hP2X7)): 32 nM

SMILES: Cc1cccc(Cl)c1C(=O)NCC(c1scnc1C)N1CCOC(c2ccc(F)cc2F)C1 (centres unmarked) [Compound 100, 2-chloro-N-{2-[2-(2,4-difluorophenyl)morpholin-4-yl]-2-(4-methyl-1,3-thiazol-5-yl)ethyl}-6-methylbenzamide]
- IC50 (P2X7 receptor): 72 nM
- IC50 (P2X7 receptor (hP2X7)): 68 nM

SMILES: Cc1cccc(Cl)c1C(=O)NCC(c1scnc1C)N1CCOC(c2ccc(F)cc2F)C1 (centres unmarked) [Compound 101, 2-chloro-N-{2-[2-(2,4-difluorophenyl)morpholin-4-yl]-2-(4-methyl-1,3-thiazol-5-yl)ethyl}-6-methylbenzamide]
- IC50 (P2X7 receptor): 42 nM
- IC50 (P2X7 receptor (hP2X7)): 114 nM

SMILES: O=C(NCC(c1cnc(C2CCC2)s1)N1CCC(F)(F)CC1)c1cccc2ncccc12 (centres unmarked) [Compound 105, N-[2-(2-cyclobutyl-1,3-thiazol-5-yl)-2-(4,4-difluoropiperidin-1-yl)ethyl]quinoline-5-carboxamide]
- IC50 (P2X7 receptor): 135 nM
- IC50 (P2X7 receptor (hP2X7)): 292 nM

SMILES: O=C(NCC(c1cnc(C2CCC2)s1)N1CCC(F)(F)CC1)c1cc(-c2ncc(F)cn2)ccc1F (centres unmarked) [Compound 106, N-[2-(2-cyclobutyl-1,3-thiazol-5-yl)-2-(4,4-difluoropiperidin-1-yl)ethyl]-2-fluoro-5-(5-fluoropyrimidin-2-yl)benzamide]
- IC50 (P2X7 receptor): 807 nM
- IC50 (P2X7 receptor (hP2X7)): 1240 nM
